Experiments:
Format in all cases: in vivo
Conditions in all cases: 250 g/ha, evaluated after 13 days, five-point scale
[1] = tested on: Echinochloa crus-galli (ECHCG); assay: Pre-emergence herbicidal glasshouse test
Method in brief: (§1)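 Pot-grown plants in standard soil; spray at day 1 (pre-em.) or day 8 (post-em.); 250 g/ha unless stated; acetone/water 50:50, 0.5% Tween 20; 24/16° C, 14 h light, 65% RH; % damage at 13 d, 1–5 scale.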

Setaria faberi (SETFA) [2] = assay: Pre-emergence herbicidal glasshouse test
Method in brief: as §1

AMAPA [3] = assay: Pre-emergence herbicidal glasshouse test
IPOHE [4] = assay: Pre-emergence herbicidal glasshouse test
Method in brief: as §1

[5] = tested on: Amaranthus retoflexus (AMARE); assay: Pre-emergence herbicidal glasshouse test
Method in brief: as §1

[6] = tested on: Echinochloa crus-galli (ECHCG); assay: Post-emergence herbicidal glasshouse test
Method in brief: as §1

Setaria faberi (SETFA) [7] = assay: Post-emergence herbicidal glasshouse test
Method in brief: as §1

AMAPA [8] = assay: Post-emergence herbicidal glasshouse test
IPOHE [9] = assay: Post-emergence herbicidal glasshouse test
Method in brief: as §1

[10] = tested on: Amaranthus retoflexus (AMARE); assay: Post-emergence herbicidal glasshouse test
Method in brief: as §1

| Compound | percentage damage caused to the plant, ECHCG [1] | percentage damage caused to the plant, SETFA (Setaria faberi (SETFA) [2]) | percentage damage caused to the plant, AMAPA (AMAPA [3]) | percentage damage caused to the plant, IPOHE (IPOHE [4]) | percentage damage caused to the plant, AMARE [5] | percentage damage caused to the plant, ECHCG [6] | percentage damage caused to the plant, SETFA (Setaria faberi (SETFA) [7]) | percentage damage caused to the plant, AMAPA (AMAPA [8]) | percentage damage caused to the plant, IPOHE (IPOHE [9]) | percentage damage caused to the plant, AMARE [10] |
| --- | --- | --- | --- | --- | --- | --- | --- | --- | --- | --- |
| Cc1ccc(-c2nc(C(F)F)cn2Cc2ncc(Cl)cn2)s1 [Compound 1.068] | 3 (3=41-60%) | 4 (4=61-80%) | 5 (5=81-100%) | 4 (4=61-80%) | 5 (5=81-100%) | 1 (1=0-20%) | 1 (1=0-20%) | 2 (2=21-40%) | 1 (1=0-20%) | 3 (3=41-60%) |
| FC(F)(F)c1cn(Cc2ncc(Cl)cn2)c(-c2ccc(Br)s2)n1 [Compound 1.069] | 5 (5=81-100%) | 5 (5=81-100%) | 5 (5=81-100%) | 5 (5=81-100%) | 5 (5=81-100%) | 5 (5=81-100%) | 5 (5=81-100%) | 5 (5=81-100%) | 4 (4=61-80%) | 5 (5=81-100%) |
| FC(F)(F)c1cn(Cc2ncc(Cl)cn2)c(-c2cc(Cl)c(Cl)s2)n1 [Compound 1.070] | 5 (5=81-100%) | 5 (5=81-100%) | 5 (5=81-100%) | 3 (3=41-60%) | 5 (5=81-100%) | 5 (5=81-100%) | 5 (5=81-100%) | 5 (5=81-100%) | 4 (4=61-80%) | 5 (5=81-100%) |
